“And” between values parts separate entries of the source, which are not always exact repeats. Equal entries are not always repeated. The source made the active and inactive calls. The rule behind the calls is not given here.
Experiments:
[1] = Inhibitory concentration of compound was determined against KB cells; format: functional, cell-based, Homo sapiens
[2] = Relative activity against the cold-induced disassembly of microtubules with respect to rhazinilam (IC50=2*10e-6M).; format: functional
[3] = Compound was tested for relative activity against the cold-induced disassembly of microtubules with respect to rhazinilam (IC50=2*10e-6M); IA means Inactive; format: functional
[4] = Compound was tested for relative activity against the cold-induced disassembly of microtubules with respect to rhazinilam (IC50=2*10e-6M); Experiment 1; format: functional
[5] = Compound was tested for relative activity against the cold-induced disassembly of microtubules with respect to rhazinilam (IC50=2*10e-6M); Experimemt 2; format: functional
[6] = Inhibitory concentration of compound was determined against KB cells; IA means Inactive; format: functional, cell-based, Homo sapiens
[7] = Compound was tested for relative activity against the cold-induced disassembly of microtubules; format: functional
[8] = Inhibitory concentration of compound was determined against disassembly of microtubules; format: functional
[9] = Compound was tested for relative activity against the cold-induced disassembly of microtubules; IA means Inactive; format: functional

Row | SMILES | IC50 [1] [µM] | Ratio [2] | other results
1 | CC[C@]12CCCn3c(C(=O)C(Cl)(Cl)Cl)cc(c31)-c1ccccc1NC(=O)CC2 | 25 | 8 | –
2 | CC[C@]12CCCn3c(C(=O)OCc4ccc(OC)c(OC)c4OC)cc(c31)-c1ccccc1NC(=O)CC2 | 20 | 7 | –
3 | CC[C@@]12CCCN3C(=O)C=C(c4ccccc4NC(=O)CC1)[C@]32O | – | – | Ratio [3]: inactive
4 | CC[C@]12CCCn3c(C=O)c(C=O)c(c31)-c1ccccc1NC(=O)CC2 | – | – | Ratio [3]: inactive
5 | CC[C@]1(CCC(=O)O)CCCn2ccc(-c3ccccc3N)c21 | – | – | Ratio [3]: inactive
6 | CC[C@]12CCCn3c(C(=O)OC)cc(c31)-c1ccccc1NC(=O)CC2 | 4 | 5 | –
7 | CC[C@@]12CCCNc3ccccc3-c3ccn(c31)CCC2 | 1 | 20 | –
8 | CC[C@]12CCCn3ccc(c31)-c1ccccc1/N=C(/S)CC2 | 10 | 50 | –
9 | CC[C@]12CCCn3c(C(=O)O)cc(c31)-c1ccccc1NC(=O)CC2 | 75 | – | Ratio [4]: 5; Ratio [5]: 2 and 3
10 | CC[C@]12CCCn3c(C=O)cc(c31)-c1ccccc1NC(=O)CC2 | – | 6 | –
11 | CC[C@@]12CCCN3CC[C@@]4(C(=Nc5ccccc54)CC1)[C@H]32 | – | – | Ratio [3]: inactive
12 | CC[C@@]12CCCN(C(=O)OC(C)(C)C)c3ccccc3-c3ccn(c31)CCC2 | 10 | 80 | –
13 | CC[C@]12CCCn3ccc(c31)-c1ccccc1N(CC(=O)OCc1ccccc1)C(=O)CC2 | – | 80 | IC50 [6]: Not Active
14 | CC[C@@]12CCC(=O)Nc3ccccc3-c3ccn(c31)C(O)CC2 (stereo not given in full) | 3 | 15 | –
15 | CC[C@]12CCCn3ccc(c31)-c1cc(Br)ccc1NC(=O)CC2 | – | 100 | IC50 [6]: Not Active
16 | CC[C@@]12CCCN3CC=C(c4ccccc4NC(=O)CC1)C32 (stereo not given in full) | – | – | Ratio [3]: inactive
17 | CC[C@]12CCCn3ccc(c31)-c1ccccc1N(C(=O)OC(C)(C)C)C(=O)CC2 | – | 80 | IC50 [6]: Not Active
18 | CC[C@@]12CCC(=O)Nc3ccccc3-c3ccn(c31)C(=O)CC2 [RHAZINICINE] | 3 | 10 | –
19 | CC[C@]12CCCn3ccc(c31)-c1ccccc1NC(=O)CC2 [RHAZINILAM] | 0.5 | – | Ratio [7]: 1; IC50 [8]: 2 µM; Ratio [9]: inactive
20 | CC[C@@]12CCCN(C(C)=O)c3ccccc3-c3ccn(c31)CCC2 | – | 80 | IC50 [6]: Not Active
21 | CC[C@]12CCCn3ccc(c31)-c1ccccc1N(C)C(=O)CC2 | 60 | 4 | –
22 | CC[C@]12CCCn3c(C(=O)C(F)(F)F)cc(c31)-c1ccccc1NC(=O)CC2 | 15 | 4 | –
23 | CC[C@]12CCCn3ccc(c31)-c1cc(NC(C)=O)ccc1NC(=O)CC2 | – | – | Ratio [3]: inactive; IC50 [6]: Not Active
24 | CC[C@]12CCCn3ccc(c31)-c1ccccc1N(CC(=O)O)C(=O)CC2 | – | 80 | IC50 [6]: Not Active
